The supplement of paper PMC4862054
Values joined by “and” are separate entries in the source; they are usually repeats but may differ in a detail not shown here. Equal entries are not always repeated.

Legend:
BT-549 [1] = conditions: 72 h
Method in brief: (§1)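 Viability of breast cancer cell lines was measured with CellTiter-Blue after 72 h of incubation on compound-loaded 384-well plates. Cells were seeded in 20 µl onto compound dissolved in 5 µl medium, and 2.5 µl reagent was added for 2 h at 37 °C before reading at 560/590 nm. EC50 was fitted from percent-inhibition dose-response data censored at the highest concentration, normalised per plate to vehicle and a positive kill control, with zero drug sensitivity score rows dropped.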

MDA-MB-436 = conditions: 72 h
Method in brief: as §1

MFM-223 = conditions: 72 h
Method in brief: as §1

HCC1143 = conditions: 72 h
Experimental: (§2)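 Drug sensitivity and resistance testing (DSRT) of breast cancer cell lines in 384-well plates, 5 concentrations in 10-fold dilutions over a compound-specific 10,000-fold range. After 72 h, cytotoxicity was read by CellTox Green fluorescence and viability by CellTiter-Glo luminescence (multiplexed), normalised to DMSO and benzethonium chloride controls. EC50 is the inflection point of the fitted dose-response curve (bottom asymptote free, so it can be relative for partial curves) and is censored at the highest tested concentration. Rows with DSS 0 (no meaningful response) were excluded.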

CAL-148 = assay: normalised viability (% of control), CellTiter-Blue; higher = more viable cells (about 100 = DMSO control); conditions: incubation time: 72 h
Experimental: (§3)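 DSRT, CellTiter-Blue viability, 72 h incubation. Signal is normalised to DMSO and benzethonium chloride controls. Value is the normalised response at dose 9.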

CAL-51 = assay: as above; conditions: incubation time: 72 h
Experimental: as §3

CAL-85-1 = assay: as above; conditions: incubation time: 72 h
Experimental: as §3

DU-4475 = assay: as above; conditions: incubation time: 72 h
Experimental: as §3

HDQ-P1 [2] = assay: as above; conditions: incubation time: 72 h
Experimental: as §3

MDA-MB-453 = assay: as above; conditions: incubation time: 72 h
Experimental: as §3

HDQ-P1 [3] = conditions: 72 h
Experimental: as §2

BT-549 [4] = assay: normalised response (% of control), CellTiter-Glo; higher = more viable cells (100 = DMSO, 0 = benzethonium chloride kill control); conditions: incubation time: 72 h
Method in brief: (§4)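 Breast cancer cell lines, seeded at 20 µl suspension per well, were incubated for 72 h in 384-well plates containing compound at 5 concentrations. These concentrations rose in 10-fold steps over a 10,000-fold range set for each compound. CellTox Green fluorescence (485/520 nm) was read, then CellTiter-Glo luminescence after 10 min at room temperature, and each plate was normalised to 0.1 % DMSO (100) and a positive kill control (0). Values are normalised signals, each at one concentration.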

MDA-MB-468 = assay: as above; conditions: incubation time: 72 h
Method in brief: as §4

SK-BR-3 = assay: as above; conditions: incubation time: 72 h
Method in brief: as §4

Structure (SMILES) | normalised viability (CAL-148) | normalised viability (CAL-51) | normalised viability (CAL-85-1) | normalised viability (DU-4475) | normalised viability (HDQ-P1 [2]) [%] | normalised viability (MDA-MB-453) | other results
Cc1ccc(Nc2nccc(N(C)c3ccc4c(C)n(C)nc4c3)n2)cc1S(N)(=O)=O [Pazopanib] | – | – | – | – | – | – | EC50, CellTiter-Blue viability (BT-549 [1]): 8260 nM; EC50, CellTiter-Blue viability (MDA-MB-436): 107 nM; EC50, CellTiter-Blue viability (MFM-223): 34.6 nM; EC50, CellTox Green (HCC1143): > 10000 nM
Cc1ccc(Nc2nccc(N(C)c3ccc4c(C)n(C)nc4c3)n2)cc1S(N)(=O)=O [Pazopanib] (10000 nM) | 79.5% | 83.9% | 100% | 86.8% | 80.7 | 62.2% | –
O=C(CCBr)N1CCN(C(=O)CCBr)CC1 [Pipobroman] | – | – | – | – | – | – | EC50, CellTiter-Blue viability (MFM-223): 6190 nM
O=C(CCBr)N1CCN(C(=O)CCBr)CC1 [Pipobroman] (10000 nM) | 84.8% | 108% | 85.6% | 112% | 109 | 7.05% | –
C[C@]12C=CC(=O)C=C1CC[C@@H]1[C@@H]2[C@@H](O)C[C@@]2(C)[C@H]1CC[C@]2(O)C(=O)CO [Prednisolone] | – | – | – | – | – | – | EC50, CellTox Green (HDQ-P1 [3]): 7320 nM
C[C@]12C=CC(=O)C=C1CC[C@@H]1[C@@H]2[C@@H](O)C[C@@]2(C)[C@H]1CC[C@]2(O)C(=O)CO [Prednisolone] (10000 nM) | 99.2% | 103% | 109% | 102% | 120 | 79.8% | –
CNC(=O)c1cc(Oc2ccc(NC(=O)Nc3ccc(Cl)c(C(F)(F)F)c3)cc2)ccn1 [Sorafenib] | – | – | – | – | – | – | EC50, CellTiter-Blue viability (BT-549 [1]): 27.1 nM; EC50, CellTiter-Blue viability (MFM-223): 952 nM
CNC(=O)c1cc(Oc2ccc(NC(=O)Nc3ccc(Cl)c(C(F)(F)F)c3)cc2)ccn1 [Sorafenib] (1000 nM) | 96.7% and 105% | 78.7% and 89.8% | 76.9% and 89.3% | – | – | 81% and 96.6% | –
CCN(CC)CCNC(=O)c1c(C)[nH]c(/C=C2\C(=O)Nc3ccc(F)cc32)c1C [Sunitinib] (1000 nM) | 107% and 117% | 112% and 98.6% | 105% and 107% | 88.2% and 77.7% | – | 89.9% and 93.9% | –
CC[C@@]1(O)C(=O)OCc2c1cc1n(c2=O)Cc2cc3c(CN(C)C)c(O)ccc3nc2-1 [Topotecan] (100 nM) | – | – | – | – | – | – | normalised response (BT-549 [4]): 84.2%; normalised response (MDA-MB-468): 62.5%; normalised response (SK-BR-3): 66.3%
CC[C@@]1(O)C(=O)OCc2c1cc1n(c2=O)Cc2cc3c(CN(C)C)c(O)ccc3nc2-1 [Topotecan] (1000 nM) | 13.8% | 15.6% | 37.5% | 12.4% | 77.7 | 44.6% | –
